In the NIST ThermoML archive (doi:10.1007/s10765-009-0581-7):
Numbers after ± are expanded uncertainties.

Legend:
[1] = for surface tension liquid-gas: Ring tensiometer; for mass density: 101 kPa, Liquid
[2] = xn = mol fraction of the nth substance listed; conditions: x2 = 0; for surface tension liquid-gas: Ring tensiometer; for mass density: 101 kPa, Liquid

| SMILES | surface tension liquid-gas ([1]; 278.15 K) | mass density ([1]; 278.15 K) | surface tension liquid-gas ([1]; 283.15 K) | mass density ([1]; 283.15 K) | surface tension liquid-gas ([1]; 288.15 K) | mass density ([1]; 288.15 K) | surface tension liquid-gas ([1]; 293.15 K) | mass density ([1]; 293.15 K) | surface tension liquid-gas ([1]; 298.15 K) | mass density ([1]; 298.15 K) | surface tension liquid-gas ([1]; 303.15 K) | mass density ([1]; 303.15 K) | surface tension liquid-gas ([1]; 308.15 K) | mass density ([1]; 308.15 K) | surface tension liquid-gas ([1]; 313.15 K) | mass density ([1]; 313.15 K) | other results |
| --- | --- | --- | --- | --- | --- | --- | --- | --- | --- | --- | --- | --- | --- | --- | --- | --- | --- |
| CC#N [acetonitrile] | 30.5 ± 0.5 mN/m | 793.3 ± 1.9 kg/m3 | 30.1 ± 0.5 mN/m | 788.8 ± 1.9 kg/m3 | 29.7 ± 0.5 mN/m | 784.3 ± 2 kg/m3 | 29.3 ± 0.5 mN/m | 778.3 ± 2 kg/m3 | 28.9 ± 0.5 mN/m | 776.75 ± 2 kg/m3 | 28.5 ± 0.4 mN/m | 771.5 ± 2 kg/m3 | 28.1 ± 0.4 mN/m | 766.3 ± 2.1 kg/m3 | 27.7 ± 0.4 mN/m | 761 ± 2.1 kg/m3 | – |
| CCCO [propan-1-ol] | 24.9 ± 0.4 mN/m | 816.3 ± 1.8 kg/m3 | 24.5 ± 0.4 mN/m | 812.4 ± 1.8 kg/m3 | 24.1 ± 0.4 mN/m | 808.6 ± 1.8 kg/m3 | 23.7 ± 0.4 mN/m | 803.61 ± 1.9 kg/m3 | 23.3 ± 0.4 mN/m | 799.58 ± 1.9 kg/m3 | 22.9 ± 0.4 mN/m | 795.48 ± 1.9 kg/m3 | 22.5 ± 0.4 mN/m | 792.8 ± 1.9 kg/m3 | 22.2 ± 0.4 mN/m | 787.02 ± 1.9 kg/m3 | – |
| CCCO [propan-1-ol] + CC#N | – | – | – | – | – | – | – | – | – | – | – | – | – | – | – | – | surface tension liquid-gas ([2]; 278.15 K): 24.9 ± 0.4 mN/m; mass density ([2]; 278.15 K): 816.3 ± 1.8 kg/m3; surface tension liquid-gas ([2]; 283.15 K): 24.5 ± 0.4 mN/m; mass density ([2]; 283.15 K): 812.4 ± 1.8 kg/m3; surface tension liquid-gas ([2]; 288.15 K): 24.1 ± 0.4 mN/m; mass density ([2]; 288.15 K): 808.6 ± 1.8 kg/m3; surface tension liquid-gas ([2]; 293.15 K): 23.7 ± 0.4 mN/m; mass density ([2]; 293.15 K): 803.61 ± 1.9 kg/m3; surface tension liquid-gas ([2]; 298.15 K): 23.3 ± 0.4 mN/m; mass density ([2]; 298.15 K): 799.58 ± 1.9 kg/m3; surface tension liquid-gas ([2]; 303.15 K): 22.9 ± 0.4 mN/m; mass density ([2]; 303.15 K): 795.48 ± 1.9 kg/m3; surface tension liquid-gas ([2]; 308.15 K): 22.5 ± 0.4 mN/m; mass density ([2]; 308.15 K): 792.8 ± 1.9 kg/m3; surface tension liquid-gas ([2]; 313.15 K): 22.2 ± 0.4 mN/m; mass density ([2]; 313.15 K): 787.02 ± 1.9 kg/m3 |
